Assay results as given in ChEMBL document CHEMBL1146115, “Synthesis and evaluation of novel heterocyclic inhibitors of GSK-3” (Bioorg Med Chem Lett, 2006).

What follows are molecules tested against Glycogen synthase kinase-3 (Homo sapiens, UniProt P49840+P49841) (assay: Inhibition of GSK3).
Format: protein assay

SMILES | Log IC50
COc1cccc(-n2ccc3c(N/N=C/c4ccncc4)ncnc32)c1 | -7.5
COc1cccc(-c2[nH]nc3c(N/N=C/c4ccncc4)ncnc23)c1 | -8.3
COc1cccc(-c2cn(C)c3c(N/N=C/c4ccncc4)ncnc23)c1 | -6.3
COc1cccc(-n2ncc3c(N/N=C/c4ccncc4)ncnc32)c1 [GW784752X] | -8.2
COc1cccc(-n2cnc3c(N/N=C/c4ccncc4)ncnc32)c1 [GW813360X] | -6.2
COc1cccc(-c2c[nH]c3c(N/N=C/c4ccncc4)ncnc23)c1 [GW814408X] | -8.3
